How the values were obtained:
[1] = system: A549 (human lung carcinoma); experiment: Cytotoxicity on A549 cells, quantitative suspension test according to EN 14476; type: cell-based; settings: observed 4 days, aqua media
Experimental: Normal human dermal fibroblasts (NHDF) (PromoCell, C-12302) were used as normal cells and LoVo (human colorectal adenocarcinoma, ATCC® CCL-229™), A549 (human lung carcinoma, ATCC, No. CCL-185 TM), MCF-7 (human breast adenocarcinoma, ATCC, No. HTB-22^TM) and HeLa (human cervix carcinoma, ATCC, No. CCL-2 TM) were used as cancer cells. They were cultured in DMEM, DMEM–F12 or EMEM (Lonza, CA, USA). Media were supplemented with 10% FBS (Biological Industries, Kibbutz Beit-Haemek, Israel), 2 mM L-glutamine (Biological Industries, Israel), 100 U/mL of penicillin and 100 µg/mL of streptomycin (Sigma, Neustadt an der Weinstrasse, Germany).
The 100 μL of suspension of NHDF, A549, HeLa, LoVo, and MCF7 cells at a density of 4 × 10^4 cells mL^−1 were incubated in a 96-well polystyrene plate (NUNC, Denmark) for 24 h. Product test solutions were prepared in DMEM, DMEM–F12, or EMEM supplemented with additional 2% FBS and 2 mM L-glutamine. Solutions of the reagents at concentrations from 460 (for 1), 454 (2), […] (3), 1242 (Cu(NO3)2), 1732 (PTA=O), and 1440 µM (dmphen) to 4.60 × 10^−6, 4.54 × 10^−6, 4.69 × 10^−6, 1.24 × 10^−5, 1.73 × 10^−5, and 1.44 × 10^−5 µM, respectively, were prepared and transferred (100 μL) into cell culture units (wells of microtiter plates) containing monolayer of cells. Eight units were inoculated with each dilution. Plates were incubated in 37 °C, 5% CO2 and observed daily for 4 days for the development of cytotoxic effect, using an inverted microscope (Olympus Corp., Hamburg, Germany, Axio Observer, Carl Zeiss MicroImaging GmbH). Then the wells were washed in phosphate buffered saline (PBS) and stained using DAPI (4′,6-diamidino-2-phenylindole) and propidium iodide (Merck, Darmstadt, Germany). The study used the fact that DAPI is able to be combined with cellular DNA, permeate through the membrane of cell, rapidly enter the nucleus of living cells and bind with DNA to form a DAPI-DNA complex. […] In cell culture these are cells that are apoptotic or damaged by any physical or chemical agent. Therefore, if these two fluorochrome are given at the same time, DAPI will get to healthy cells faster, while propidium iodide will stain dead or dying cells. The calculation of the ratio of cells counted on a specific area, allows to determine the potency of a substance in inhibiting a specific biological function (IC50).

[2] = biological target: T1, human apo-transferrin (apo-Tf) (Homo sapiens, UniProt P02787); experiment: Apo-transferrin interaction by fluorescence quenching (Stern-Volmer, binding, van't Hoff); settings: for Ka (association constant) / Ksv (Stern-Volmer quenching constant): PBS pH 7.40; for Kq (quenching rate constant): Kq = Ksv/τo, τo 2.5 ns; for H^0 (enthalpy change) / S^0 (entropy change): van't Hoff, 300 and 310 K
T1 construct: purchased Sigma-Aldrich
Source text: There are two mechanisms of fluorescence quenching, dynamic and static, that can be distinguished based on the temperature dependency. Dynamic quenching is due to collisions between quencher and fluorophore and static quenching results from the formation of the ground state complex between the molecules. A modified Stern–Volmer equation (Equation (3)) was used to calculate Stern–Volmer quenching constants (KSV) and quenching rate constants (Kq) of the interactions between apo-transferrin and copper complexes and to determine the mechanism of fluorescence quenching. Fo/(Fo − F) = 1/fa + 1/(faKsv[Q])(3)
In the equation, Fo and F are the fluorescence intensities of protein in the absence and presence of the quencher in the concentration (Q), respectively; KSV is the Stern–Volmer quenching constant; and fa is the fraction of the fluorophore accessible to the quencher.
Kq, the quenching rate constant of the biomolecules, is expressed as:Kq = Ksv/τo(4) where τo is the fluorescence lifetime of protein without quencher. For apo-transferrin, the τo value is 2.5 ns.
Association constants (Ka) and number of binding sites (n) were determined based on the Equation (5):log {(Fo − F)/F} = logKa + nlog[Q](5) where Fo and F are the fluorescence intensities in the absence and presence of the quencher in the concentration (Q), respectively, Ka is the binding constant, and n is the number of binding sites.
It is known that interactions between proteins and small molecules include hydrogen bonds, van der Waals, and electrostatic forces as well hydrophobic interactions. Based on thermodynamic parameters, we determined the type of interaction of copper complexes with apo-transferrin.
∆G^0 = ∆H^0 − T∆S^0(7) where Ka is the bimolecular binding constant at the corresponding temperature (T); R is the gas constant; and ΔH^0, ΔS^0, and ΔG^0 are enthalpy, entropy, and free energy change, respectively.
High purity apo-transferrin (≥ 98%, Sigma-Aldrich, Steinheim, North Rhine-Westphalia, Germany) was used without prior purification. The stock solutions of the complexes were prepared in demineralized water (1 and 2) or ethanol (3). The apo-Tf was dissolved in PBS (pH 7.40). The molar ratios of the final samples in PBS were (protein):(drug) = 1:0–1:16 in PBS with the protein concentration equal 2 μM. Samples were incubated at 300 and 310 K for 5 min. The apo-Tf concentration was determined using ε (280 nm) = 11.2 mM^−1 × cm^−1.
Emission fluorescence spectra were recorded on Jasco 8200 spectrofluorimeter (Tokyo, Japan) in the range of 300–500 nm using 1.0 cm quartz cells. The λex was set to 280 nm and the excitation and emission slit widths were set to 5 nm. All fluorescence intensities were corrected (according to Equation (8)) for the inner filter and dilution effects and the corrected values were used to determine the quenching mechanism and binding data. […] Therefore, all spectra are shown as different spectra of (apo-Tf-copper complex)−(copper complex). Fcorr = exp(A280 + Aem/2) × Fexp(8)

T1 sequence (P02787 20-698): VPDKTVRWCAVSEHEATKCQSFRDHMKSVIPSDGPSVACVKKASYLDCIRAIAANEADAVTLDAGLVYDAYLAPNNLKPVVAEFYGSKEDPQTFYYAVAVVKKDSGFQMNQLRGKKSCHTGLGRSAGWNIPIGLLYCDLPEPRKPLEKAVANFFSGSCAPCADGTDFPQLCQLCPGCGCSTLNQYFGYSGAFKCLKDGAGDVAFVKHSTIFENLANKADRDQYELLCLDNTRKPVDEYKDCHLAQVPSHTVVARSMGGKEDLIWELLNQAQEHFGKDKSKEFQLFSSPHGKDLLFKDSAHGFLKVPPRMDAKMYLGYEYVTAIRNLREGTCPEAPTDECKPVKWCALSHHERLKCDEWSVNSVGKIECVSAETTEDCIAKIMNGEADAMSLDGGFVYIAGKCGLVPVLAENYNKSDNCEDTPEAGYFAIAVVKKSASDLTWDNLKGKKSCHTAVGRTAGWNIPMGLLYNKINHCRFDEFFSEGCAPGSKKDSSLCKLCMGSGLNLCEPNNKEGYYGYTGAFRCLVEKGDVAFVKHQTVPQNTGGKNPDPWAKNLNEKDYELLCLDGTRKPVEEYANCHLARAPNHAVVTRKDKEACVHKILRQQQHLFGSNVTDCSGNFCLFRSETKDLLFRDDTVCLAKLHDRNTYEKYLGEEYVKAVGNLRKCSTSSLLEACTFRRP

Row | Structure (SMILES) | IC50 [1] | G^0 (free energy change) ([2]; 300 K) | Ksv values ([2]; 300 K) | n (number of binding sites) ([2]; 300 K) | Ka (association constant) ([2]; 300K) | Ksv (Stern-Volmer quenching constant) ([2]; 300K) | G^0 (free energy change) ([2]; 310 K) | Ksv values ([2]; 310 K) | n (number of binding sites) ([2]; 310 K) | Kq (quenching rate constant) ([2]; 310K) | Ka (association constant) ([2]; 310K) | Ksv (Stern-Volmer quenching constant) ([2]; 310K) | H^0 (enthalpy change) [2] | S^0 (entropy change) [2] | Kq (quenching rate constant) ([2]; 300K)
1 | CC#N.Cc1ccc2ccc3ccc(C)nc3c2n1.O=[N+]([O-])[O-].O=[N+]([O-])[O-].[Cu+2] [Complex 3, [Cu(NO3)2(dmphen)]∙MeCN] | 430 ± 60 nM | -9.563 kcal/mol | 53700 M⁻¹ | 1.40 ± 0.076 | 9.26 ± 0.37 ·10^6 [M^−1] | 5.37 ± 0.023 ·10^4 [M^−1] | -9.888 kcal/mol | 35100 M⁻¹ | 1.42 ± 0.068 | 1.40 ± 0.062 ·10^13 [M^−1s^−1] | 9.38 ± 0.33 ·10^6 [M^−1] | 3.51 ± 0.062 ·10^4 [M^−1] | 230 kcal/mol | 136.57 J mol^−1 K^−1 | –
2 | Cc1ccc2ccc3ccc(C)nc3c2n1.F[P-](F)(F)(F)(F)F.O=P12CN3CN(CN(C3)C1)C2.O=[N+]([O-])[O-].[Cu+2] [Complex 1, [Cu(NO3)(PTA=O)(dmphen)][PF6]] | 290 ± 10 nM | -8.253 kcal/mol | – | 1.26 ± 0.033 | 1.03 ± 0.16 ·10^6 [M^−1] | 2.50 ± 0.011 ·10^4 [M^−1] | -8.406 kcal/mol | – | 1.24 ± 0.036 | 1.17 ± 0.029 ·10^13 [M^−1s^−1] | 0.843 ± 0.17 ·10^6 [M^−1] | 2.92 ± 0.029 ·10^4 [M^−1] | -3.664 kcal/mol | 63.99 J mol^−1 K^−1 | 1.00 ± 0.011 ·10^13 [M^−1s^−1]
3 | Cc1ccc2ccc3ccc(C)nc3c2n1.Cc1ccc2ccc3ccc(C)nc3c2n1.F[P-](F)(F)(F)(F)F.[Cl-].[Cu+2] [Complex 2, [Cu(Cl)(dmphen)2][PF6]] | 280 ± 40 nM | -9.118 kcal/mol | – | 1.35 ± 0.050 | 4.38 ± 0.24 ·10^6 [M^−1] | 4.03 ± 0.050 ·10^4 [M^−1] | -9.19 kcal/mol | – | 1.31 ± 0.066 | 2.27 ± 0.024 ·10^13 [M^−1s^−1] | 3.04 ± 0.32 ·10^6 [M^−1] | 5.69 ± 0.024 ·10^4 [M^−1] | -6.75 kcal/mol | 33.02 J mol^−1 K^−1 | 1.61 ± 0.050 ·10^13 [M^−1s^−1]
